The experiment deals with T1, G protein-coupled receptor 119 (GPR-119) (Mesocricetus auratus, UniProt A0A1U8CD06).
T1 construct: hamster-derived β-cells containing G protein-coupled receptor 119 (GPR-119), HIT-T15 cells; host or cells: HIT-T15 (hamster pancreatic β-cells)
T1 sequence (A0A1U8CD06 1-334): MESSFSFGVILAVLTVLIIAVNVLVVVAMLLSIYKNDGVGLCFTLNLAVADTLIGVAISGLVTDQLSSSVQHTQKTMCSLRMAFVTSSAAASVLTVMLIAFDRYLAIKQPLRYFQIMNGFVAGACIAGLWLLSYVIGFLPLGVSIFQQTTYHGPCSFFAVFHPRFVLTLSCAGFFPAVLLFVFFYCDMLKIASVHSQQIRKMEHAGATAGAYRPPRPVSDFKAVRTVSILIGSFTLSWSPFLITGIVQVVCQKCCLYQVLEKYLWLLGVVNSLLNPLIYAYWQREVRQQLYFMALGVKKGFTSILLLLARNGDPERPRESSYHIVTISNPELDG
The experiment in a line: Evaluation of cAMP activity in HIT-T15 cells (HTRF cAMP dynamic kit). The following applies: cAMP activation. It is filed as cell-based, hamster. In short, it runs like this: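 HIT-T15 cells, 60,000/well, treated next day with compound at six concentrations ([…]) for 1 h at 37° C. Lysate cAMP quantified by HTRF competitive immunoassay (D2-cAMP, cryptate anti-cAMP); activity taken as change in FRET signal relative to DMSO.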
(Time-resolved FRET reads energy transfer from a long-lived donor to a nearby acceptor.)

[1] abbreviates: 1 h at 37° C., six concentrations, read-out: EC50.

Counter-ions that a name gives are not always drawn. Like-named read-outs stand apart in the source and are kept apart here. A value given as a limit tells only on which side of the number the result lay.

One may read the EC50 as the concentration that produces a half-maximal response. As to `CCc1cnc(N2CCC(COc3ccc(C4=CCC(C(=O)NC[C@H](O)CO)CC4)cc3)CC2)nc1` (stereo partly drawn) [Example 128, N-((S)-2,3-dihydroxypropyl)-4-(4-((1-(5-ethylpyrimidin-2-yl)piperidin-4-yl)methoxy)phenyl)cyclohex-3-enecarboxamide], under setting [1], the EC50 came out at 200 nM. Take `C[C@H](CO)NC(=O)C1CC=C(c2ccc(OCC3CCN(C(=O)OC(C)(C)C)CC3)cc2F)CC1` (stereo partly drawn) [Example 129, tert-butyl 4-((3-fluoro-4-(4-((R)-1-hydroxypropan-2-ylcarbamoyl)cyclohex-1-enyl)phenoxy)methyl)piperidine-1-carboxylate]: the EC50 under setting [1] worked out at 140 nM. Same read-out and setting: as for `C[C@@H](CO)NC(=O)C1CC=C(c2ccc(OCC3CCN(C(=O)OC(C)(C)C)CC3)cc2F)CC1` (stereo partly drawn) [Example 130, tert-butyl 4-((3-fluoro-4-(4-((S)-1-hydroxypropan-2-ylcarbamoyl)cyclohex-1-enyl)phenoxy)methyl)piperidine-1-carboxylate], the figure is 90 nM; as for `CC(C)(C)OC(=O)N1CCC(COc2ccc(C3=CCC(C(=O)NC[C@@H](O)CO)CC3)c(F)c2)CC1` (stereo partly drawn) [Example 131, tert-butyl 4-((4-(4-((R)-2,3-dihydroxypropylcarbamoyl)cyclohex-1-enyl)-3-fluorophenoxy)methyl)piperidine-1-carboxylate], 150 nM. Still for that read-out and setting: as for `CC(C)(C)OC(=O)N1CCC(COc2ccc(C3=CCC(C(=O)NC[C@H](O)CO)CC3)c(F)c2)CC1` (stereo partly drawn) [Example 132, tert-butyl 4-((4-(4-((S)-2,3-dihydroxypropylcarbamoyl)cyclohex-1-enyl)-3-fluorophenoxy)methyl)piperidine-1-carboxylate], the figure is 210 nM; as for `CC(C)c1noc(N2CCC(COc3ccc(C4=CCC(C(=O)NCC(=O)N5CCC[C@H]5C(N)=O)CC4)cc3F)CC2)n1` (stereo partly drawn) [Example 133, (2S)-1-(2-(4-(3-fluoro-4-((1-(3-isopropyl-1,2,4-oxadiazol-5-yl)piperidin-4-yl)methoxy)phenyl)cyclohex-3-enecarboxamido)acetyl)pyrrolidine-2-carboxamide], 400 nM.

As to `CC(C)c1noc(N2CCC(COc3ccc(C4=CCC(C(=O)NCCC(=O)N5CCC[C@H]5C(N)=O)CC4)cc3F)CC2)n1` (stereo partly drawn) [Example 134, (2S)-1-(3-(4-(3-fluoro-4-((1-(3-isopropyl-1,2,4-oxadiazol-5-yl)piperidin-4-yl)methoxy)phenyl)cyclohex-3-enecarboxamido)propanoyl)pyrrolidine-2-carboxamide], the EC50 under setting [1] was determined as 350 nM. Take `CCc1cnc(N2CCC(COc3ccc(C4=CCC(C(=O)N5CC[C@H](O)C5)CC4)cc3)CC2)nc1` (stereo partly drawn) [Example 135, (4-(4-((1-(5-ethylpyrimidin-2-yl)piperidin-4-yl)methoxy)phenyl)cyclohex-3-enyl)((S)-3-hydroxypyrrolidin-1-yl)methanone]: the EC50 reads like this: under setting [1], 30 nM; (read-out: EC50 value) at most 50 nM. With `CCc1cnc(N2CCC(COc3ccc(C4=CCC(C(=O)NC[C@H](C)O)CC4)cc3)CC2)nc1` (stereo partly drawn) [Example 136, 4-(4-((1-(5-ethylpyrimidin-2-yl)piperidin-4-yl)methoxy)phenyl)-N-((S)-2-hydroxypropyl)cyclohex-3-enecarboxamide], under setting [1], the EC50 came out at 62 nM.

With `CC(C)(C)OC(=O)N1CCC(COc2ccc(C3=CCC(C(=O)NC4CC4)CC3)c(F)c2)CC1` (stereo not drawn) [Example 137, tert-butyl 4-((4-(4-(cyclopropylcarbamoyl)cyclohex-1-enyl)-3-fluorophenoxy)methyl)piperidine-1-carboxylate], the EC50 under setting [1] turned out to be 60 nM.

With `CC(C)(C)OC(=O)N1CCC(COc2ccc(C3=CCC(C(=O)NCCF)CC3)c(F)c2)CC1` (stereo not drawn) [Example 138, tert-butyl 4-((3-fluoro-4-(4-(2-fluoroethylcarbamoyl)cyclohex-1-enyl)phenoxy)methyl)piperidine-1-carboxylate], the EC50 under setting [1] is 100 nM. Regarding `CC(C)c1noc(N2CCC(COc3ccc(C4=CCC(C(=O)NCCC(=O)N5CCC[C@H]5C#N)CC4)cc3F)CC2)n1` (stereo partly drawn) [Example 140, N-(3-((S)-2-cyanopyrrolidin-1-yl)-3-oxopropyl)-4-(3-fluoro-4-((1-(3-isopropyl-1,2,4-oxadiazol-5-yl)piperidin-4-yl)methoxy)phenyl)cyclohex-3-enecarboxamide], under setting [1], the EC50 amounted to 120 nM. The same measure, in the same setting: as for `CC(C)(C)OC(=O)N1CCC(COc2ccc(C3=CCC(C(=O)NCC(F)F)CC3)c(F)c2)CC1` (stereo not drawn) [Example 141, tert-butyl 4-((4-(4-(2,2-difluoroethylcarbamoyl)cyclohex-1-enyl)-3-fluorophenoxy)methyl)piperidine-1-carboxylate], the figure is 75 nM; as for `CC(C)(C)OC(=O)N1CCC(COc2ccc(C3=CCC(C(=O)NCC(F)(F)F)CC3)c(F)c2)CC1` (stereo not drawn) [Example 142, tert-butyl 4-((3-fluoro-4-(4-(2,2,2-trifluoroethylcarbamoyl)cyclohex-1-enyl)phenoxy)methyl)piperidine-1-carboxylate], 85 nM. In the case of `CC(C)c1noc(N2CCC(COc3ccc(C4=CCC(C(=O)N5CC[C@@H](CO)C5)CC4)cc3)CC2)n1` (stereo partly drawn) [Example 149, ((R)-3-(hydroxymethyl)pyrrolidin-1-yl)(4-(4-((1-(3-isopropyl-1,2,4-oxadiazol-5-yl)piperidin-4-yl)methoxy)phenyl)cyclohex-3-enyl)methanone], the EC50 under setting [1] was found to be 23 nM and the EC50 (read-out: EC50 value) was at most 50 nM. In the case of `CC(C)c1noc(N2CCC(COc3ccc(C4=CCC(C(=O)N5CC[C@H](CO)C5)CC4)cc3)CC2)n1` (stereo partly drawn) [Example 150, ((S)-3-(hydroxymethyl)pyrrolidin-1-yl)(4-(4-((1-(3-isopropyl-1,2,4-oxadiazol-5-yl)piperidin-4-yl)methoxy)phenyl)cyclohex-3-enyl)methanone], the EC50 was 19 nM under setting [1] and at most 50 nM (read-out: EC50 value). As for `CCc1cnc(N2CCC(COc3ccc(C4=CCC(C(=O)N5CC[C@H](CO)C5)CC4)cc3)CC2)nc1` (stereo partly drawn) [Example 152, (4-(4-((1-(5-ethylpyrimidin-2-yl)piperidin-4-yl)methoxy)phenyl)cyclohex-3-enyl)((S)-3-(hydroxymethyl)pyrrolidin-1-yl)methanone], the 50% effective concentration (EC50) is 36 nM under setting [1] and at most 50 nM (read-out: EC50 value). Regarding `CCc1cnc(N2CCC(COc3ccc(C4=CCC(C(=O)N5CC[C@H](CO)C5)CC4)cc3)CC2)nc1` (stereo partly drawn) [Example 158, (4-(4-((1-(5-ethylpyrimidin-2-yl)piperidin-4-yl)methoxy)phenyl)cyclohex-3-enyl)((S)-3-(hydroxymethyl)pyrrolidin-1-yl)methanone hydrochloride], under setting [1], the EC50 stood at 25 nM. In the case of `CCc1cnc(N2CCC(COc3ccc(C4=CCC(C(=O)N5CC[C@@H](CO)C5)CC4)cc3)CC2)nc1` (stereo partly drawn) [Example 159, (4-(4-((1-(5-ethylpyrimidin-2-yl)piperidin-4-yl)methoxy)phenyl)cyclohex-3-enyl)((R)-3-(hydroxymethyl)pyrrolidin-1-yl)methanone hydrochloride], the EC50 reads like this: under setting [1], 20 nM; (read-out: EC50 value) at most 50 nM.

For `CCc1cnc(N2CCC(COc3ccc(C4=CCC(C(=O)N5CC[C@H](F)C5)CC4)cc3)CC2)nc1` (stereo partly drawn) [Example 160, (4-(4-((1-(5-ethylpyrimidin-2-yl)piperidin-4-yl)methoxy)phenyl)cyclohex-3-enyl)((S)-3-fluoropyrrolidin-1-yl)methanone], the EC50 is, setting by setting: under setting [1], 14 nM; (read-out: EC50 value) at most 50 nM. Regarding `CCc1cnc(N2CCC(COc3ccc(C4=CCC(C(=O)N5CC[C@H](F)C5)CC4)cc3)CC2)nc1` (stereo partly drawn) [Example 161, (4-(4-((1-(5-ethylpyrimidin-2-yl)piperidin-4-yl)methoxy)phenyl)cyclohex-3-enyl)((S)-3-fluoropyrrolidin-1-yl)methanone hydrochloride], under setting [1], the EC50 was found to be 6 nM. Turning to `CCc1cnc(N2CCC(COc3ccc(C4=CCC(C(=O)N5CCCC5)CC4)cc3)CC2)nc1` (stereo not drawn) [Example 162, (4-(4-((1-(5-ethylpyrimidin-2-yl)piperidin-4-yl)methoxy)phenyl)cyclohex-3-enyl)(pyrrolidin-1-yl)methanone], the EC50 is 27 nM under setting [1] and at most 50 nM (read-out: EC50 value). The corresponding values for `CCc1cnc(N2CCC(COc3ccc(C4=CCC(C(=O)N5CCCCC5)CC4)cc3)CC2)nc1` (stereo not drawn) [Example 163, (4-(4-((1-(5-ethylpyrimidin-2-yl)piperidin-4-yl)methoxy)phenyl)cyclohex-3-enyl)(piperidin-1-yl)methanone] are 7 nM and at most 50 nM. The corresponding values for `CCc1cnc(N2CCC(COc3ccc(C4=CCC(C(=O)N5CCC(O)CC5)CC4)cc3)CC2)nc1` (stereo not drawn) [Example 164, (4-(4-((1-(5-ethylpyrimidin-2-yl)piperidin-4-yl)methoxy)phenyl)cyclohex-3-enyl)(4-hydroxypiperidin-1-yl)methanone] are 16 nM and at most 50 nM. With `CCc1cnc(N2CCC(COc3ccc(C4=CCC(C(=O)N5CCC(CO)CC5)CC4)cc3)CC2)nc1` (stereo not drawn) [Example 165, (4-(4-((1-(5-ethylpyrimidin-2-yl)piperidin-4-yl)methoxy)phenyl)cyclohex-3-enyl)(4-(hydroxymethyl)piperidin-1-yl)methanone], the concentration giving a half-maximal response (EC50) was 7 nM under setting [1] and at most 50 nM (read-out: EC50 value).

`CCc1cnc(N2CCC(COc3ccc(C4=CCC(C(=O)N5CCCC5)CC4)cc3)CC2)nc1` (stereo not drawn) [Example 166, (4-(4-((1-(5-ethylpyrimidin-2-yl)piperidin-4-yl)methoxy)phenyl)cyclohex-3-enyl)(pyrrolidin-1-yl)methanone hydrochloride]: the EC50 under setting [1] is 22 nM.
